From ChEMBL document CHEMBL1201862, “PubChem BioAssay data set” (2004)
Several values for one entry are separate records, joined by “and”; a condition that tells them apart may be missing. Equal values may be shown once. Activity calls are given as the source filed them.

Key:
[1] = target: Peroxisome proliferator-activated receptor gamma/Nuclear receptor coactivator 1 (Homo sapiens, UniProt P37231); test: TR-FRET dose response biochemical High Throughput Screening assay for agonists of the steroid receptor coactivator 1 (SRC-1) recruitment by the peroxisome proliferator-activated receptor gamma (PPAR gamma): non-selective agonists. [Related pubchem assays (depositor defined):AID1300, AID1808, AID504735, AID631]; assay type: protein assay
[2] = target: Peroxisome proliferator-activated receptor gamma/Nuclear receptor coactivator 2 (Homo sapiens, UniProt P37231); test: TR-FRET dose response biochemical High Throughput Screening assay for agonists of the steroid receptor coactivator 2 (SRC-2) recruitment by the peroxisome proliferator-activated receptor gamma (PPAR gamma): non-selective agonists. [Related pubchem assays: 1297, 1032 ]; assay type: functional
Protein Tat = Protein Tat (Human immunodeficiency virus type 1 group M subtype B (isolate HXB2)(HIV-1), UniProt P04608); assay type: functional;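 note: tat binding to TAR RNA read out by fluorescence polarization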
Chain of Protein Tat (P04608 whole entry): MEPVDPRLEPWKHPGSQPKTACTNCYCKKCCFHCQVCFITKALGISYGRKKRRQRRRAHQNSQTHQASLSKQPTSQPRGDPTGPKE

[3] = target: Peroxisome proliferator-activated receptor gamma/Nuclear receptor corepressor 2 (Homo sapiens, UniProt P37231+Q9Y618); assay type: functional
Chain of Peroxisome proliferator-activated receptor gamma/Nuclear receptor corepressor 2 (P37231 whole entry): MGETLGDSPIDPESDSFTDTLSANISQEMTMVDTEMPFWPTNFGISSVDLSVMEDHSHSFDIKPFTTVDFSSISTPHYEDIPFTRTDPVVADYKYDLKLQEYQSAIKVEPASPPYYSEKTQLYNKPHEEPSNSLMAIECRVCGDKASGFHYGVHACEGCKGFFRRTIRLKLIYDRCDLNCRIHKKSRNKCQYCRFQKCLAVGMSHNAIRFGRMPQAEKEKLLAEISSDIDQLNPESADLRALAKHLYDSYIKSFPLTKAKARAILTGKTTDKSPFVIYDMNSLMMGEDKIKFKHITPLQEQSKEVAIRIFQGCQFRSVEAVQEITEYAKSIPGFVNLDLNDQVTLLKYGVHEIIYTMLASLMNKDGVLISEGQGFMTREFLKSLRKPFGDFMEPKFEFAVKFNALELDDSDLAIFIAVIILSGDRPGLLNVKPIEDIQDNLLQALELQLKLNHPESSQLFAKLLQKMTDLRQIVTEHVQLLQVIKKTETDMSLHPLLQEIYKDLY
Chain of Peroxisome proliferator-activated receptor gamma/Nuclear receptor corepressor 2 (Q9Y618 whole entry): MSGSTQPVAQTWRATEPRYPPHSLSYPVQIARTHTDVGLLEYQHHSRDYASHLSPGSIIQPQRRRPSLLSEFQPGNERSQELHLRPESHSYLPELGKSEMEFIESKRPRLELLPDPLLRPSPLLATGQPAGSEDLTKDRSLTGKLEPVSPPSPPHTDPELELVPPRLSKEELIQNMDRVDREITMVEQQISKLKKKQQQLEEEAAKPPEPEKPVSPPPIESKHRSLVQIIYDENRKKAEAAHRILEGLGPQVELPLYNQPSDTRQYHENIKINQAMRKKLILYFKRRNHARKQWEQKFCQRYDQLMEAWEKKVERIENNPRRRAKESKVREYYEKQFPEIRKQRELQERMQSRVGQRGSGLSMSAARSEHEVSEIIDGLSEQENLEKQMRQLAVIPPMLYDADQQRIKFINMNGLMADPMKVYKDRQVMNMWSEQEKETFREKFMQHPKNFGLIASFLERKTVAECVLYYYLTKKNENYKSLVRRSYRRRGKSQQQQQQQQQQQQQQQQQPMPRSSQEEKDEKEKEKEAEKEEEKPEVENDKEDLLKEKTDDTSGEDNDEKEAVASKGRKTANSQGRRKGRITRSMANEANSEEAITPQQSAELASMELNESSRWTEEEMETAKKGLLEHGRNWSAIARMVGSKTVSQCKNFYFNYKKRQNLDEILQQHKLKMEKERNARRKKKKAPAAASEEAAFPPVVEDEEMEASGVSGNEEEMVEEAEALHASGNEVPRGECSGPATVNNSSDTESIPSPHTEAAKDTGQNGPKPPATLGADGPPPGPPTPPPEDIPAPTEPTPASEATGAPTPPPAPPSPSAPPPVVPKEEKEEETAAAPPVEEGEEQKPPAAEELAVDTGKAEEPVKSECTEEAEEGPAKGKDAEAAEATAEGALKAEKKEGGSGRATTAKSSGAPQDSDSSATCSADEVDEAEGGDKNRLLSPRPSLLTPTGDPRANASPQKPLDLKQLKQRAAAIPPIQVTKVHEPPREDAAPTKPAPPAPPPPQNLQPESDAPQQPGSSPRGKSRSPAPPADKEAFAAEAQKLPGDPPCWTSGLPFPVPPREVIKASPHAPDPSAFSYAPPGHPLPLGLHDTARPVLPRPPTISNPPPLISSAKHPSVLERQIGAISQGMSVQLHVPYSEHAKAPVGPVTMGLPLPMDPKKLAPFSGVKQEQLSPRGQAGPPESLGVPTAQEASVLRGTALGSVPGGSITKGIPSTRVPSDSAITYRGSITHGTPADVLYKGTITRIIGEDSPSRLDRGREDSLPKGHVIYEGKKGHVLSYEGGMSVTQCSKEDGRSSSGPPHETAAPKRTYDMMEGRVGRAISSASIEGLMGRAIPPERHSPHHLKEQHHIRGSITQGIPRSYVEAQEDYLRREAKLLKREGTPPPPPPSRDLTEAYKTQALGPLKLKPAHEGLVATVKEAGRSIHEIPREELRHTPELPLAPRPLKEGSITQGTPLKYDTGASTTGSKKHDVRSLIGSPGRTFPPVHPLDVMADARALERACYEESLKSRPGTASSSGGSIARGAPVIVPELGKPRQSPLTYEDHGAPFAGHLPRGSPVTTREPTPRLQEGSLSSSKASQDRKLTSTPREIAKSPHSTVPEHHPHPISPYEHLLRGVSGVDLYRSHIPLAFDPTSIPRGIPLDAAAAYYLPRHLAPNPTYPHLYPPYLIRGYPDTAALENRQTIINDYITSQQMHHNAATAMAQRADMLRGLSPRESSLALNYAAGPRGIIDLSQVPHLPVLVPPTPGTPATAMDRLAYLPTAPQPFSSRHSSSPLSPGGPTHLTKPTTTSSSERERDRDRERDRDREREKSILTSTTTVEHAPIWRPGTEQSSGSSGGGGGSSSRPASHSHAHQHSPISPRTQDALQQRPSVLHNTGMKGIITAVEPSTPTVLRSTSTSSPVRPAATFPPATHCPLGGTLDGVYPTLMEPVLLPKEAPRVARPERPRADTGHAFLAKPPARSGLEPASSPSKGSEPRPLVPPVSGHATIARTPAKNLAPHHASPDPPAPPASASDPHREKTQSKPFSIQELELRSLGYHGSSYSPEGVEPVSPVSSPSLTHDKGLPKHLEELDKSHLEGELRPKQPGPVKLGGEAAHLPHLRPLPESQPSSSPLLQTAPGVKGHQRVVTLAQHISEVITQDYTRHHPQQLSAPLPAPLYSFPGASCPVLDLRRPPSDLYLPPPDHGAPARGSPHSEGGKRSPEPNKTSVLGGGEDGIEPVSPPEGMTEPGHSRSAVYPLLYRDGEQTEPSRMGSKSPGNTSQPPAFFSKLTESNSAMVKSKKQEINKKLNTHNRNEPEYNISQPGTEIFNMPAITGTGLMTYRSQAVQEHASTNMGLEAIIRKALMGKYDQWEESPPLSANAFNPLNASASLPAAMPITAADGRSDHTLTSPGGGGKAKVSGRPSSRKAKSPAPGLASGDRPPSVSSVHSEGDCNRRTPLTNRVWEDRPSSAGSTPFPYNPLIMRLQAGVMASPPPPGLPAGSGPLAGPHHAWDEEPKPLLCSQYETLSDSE

[4] = target: Peroxisome proliferator-activated receptor gamma/Nuclear receptor coactivator 3 (Homo sapiens, UniProt P37231); test: TR-FRET dose response biochemical High Throughput Screening assay for agonists of the steroid receptor coactivator 3 (SRC-3) recruitment by the peroxisome proliferator-activated receptor gamma (PPAR gamma): non-selective agonists. [Related pubchem assays: 1301 (Confirmation screen.), 1048 (Primary screen.)]; assay type: functional
[5] = target: Photoreceptor-specific nuclear receptor (Homo sapiens, UniProt Q9Y5X4); assay type: functional;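 note: potency for compounds that break the NR2E3 corepressor complex and count as activators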
Chain of Photoreceptor-specific nuclear receptor (Q9Y5X4 whole entry): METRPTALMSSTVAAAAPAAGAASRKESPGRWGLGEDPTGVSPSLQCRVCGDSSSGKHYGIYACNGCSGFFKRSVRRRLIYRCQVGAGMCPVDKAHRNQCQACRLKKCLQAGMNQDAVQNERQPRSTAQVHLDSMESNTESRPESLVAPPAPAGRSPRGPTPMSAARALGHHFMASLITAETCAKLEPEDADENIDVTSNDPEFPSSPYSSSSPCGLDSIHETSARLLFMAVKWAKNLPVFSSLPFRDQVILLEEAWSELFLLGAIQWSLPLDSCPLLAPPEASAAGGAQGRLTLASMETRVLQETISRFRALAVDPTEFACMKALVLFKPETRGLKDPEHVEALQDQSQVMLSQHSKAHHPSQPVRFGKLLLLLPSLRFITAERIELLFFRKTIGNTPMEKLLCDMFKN

[6] = target: Fructose-bisphosphate aldolase (Mycobacterium tuberculosis, UniProt P9WQA3); test: Fluorescence-based biochemical high throughput dose response assay for inhibitors of the fructose-bisphosphate aldolase (FBA) of M. tuberculosis.; assay type: functional
H4 = test: Luminescence Cell-Based Dose Response HTS to Identify Activators of 5'UTR Stem-Loop Driven Prion Protein mRNA Translation in H4 Neuroglioblastoma Cells. [Related pubchem assays: 1829 (Project Summary), 1814 (Primary HTS)]; assay type: functional; details: Homo sapiens
[7] = viability loss of HPDE-C7K cells – cell-based, fluorescence, HTS, primary screen (AID 431); assay type: functional; details: Homo sapiens
[8] = HPDE-C7 pancreatic duct cell viability loss – fluorescence, HTS (AID 430); assay type: functional, cell-based; details: Homo sapiens
[9] = Luminescence Cell-Based Dose Confirmation HTS to Identify Activators of 5'UTR Stem-Loop Driven Alpha-Synuclein mRNA Translation in H4 Neuroglioblastoma Cells. [Related pubchem assays: 1829 (Project Summary), 1814 (Primary HTS)]; assay type: functional
[10] = Luminescence Cell-Based Dose Response HTS to Identify Activators of Luciferase Translation or Activity in H4 […] Cells. [Related pubchem assays: 1829 (Project Summary), 1814 (Primary HTS)]; assay type: functional
[11] = NIH3T3 cell viability loss – ATP luminescence, mouse fibroblasts, counter-screen, dose response (AID 2010); assay type: functional, cell-based;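 note: cells exposed to compound for about 90 hours before reading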
[12] = Trypanosoma cruzi growth suppression in host cells – NIH3T3 host cells, beta-gal luminescence, confirmation (AID 2044); assay type: functional, cell-based;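 note: intracellular parasites grown in NIH/3T3 mouse fibroblasts as host cells; luminescent beta-galactosidase reporter signal from transgenic T. cruzi replicating inside host cells; inhibitors lower the luminescence signal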
Estrogen receptor beta [13] = target: T1, Estrogen receptor beta (Homo sapiens, UniProt Q92731); test: blockers of SRC-3 recruitment to ERβ – biochemical, ELISA, streptavidin-HRP readout, orthogonal assay, confirmation (AID 1060)
T1 sequence (Q92731 whole entry): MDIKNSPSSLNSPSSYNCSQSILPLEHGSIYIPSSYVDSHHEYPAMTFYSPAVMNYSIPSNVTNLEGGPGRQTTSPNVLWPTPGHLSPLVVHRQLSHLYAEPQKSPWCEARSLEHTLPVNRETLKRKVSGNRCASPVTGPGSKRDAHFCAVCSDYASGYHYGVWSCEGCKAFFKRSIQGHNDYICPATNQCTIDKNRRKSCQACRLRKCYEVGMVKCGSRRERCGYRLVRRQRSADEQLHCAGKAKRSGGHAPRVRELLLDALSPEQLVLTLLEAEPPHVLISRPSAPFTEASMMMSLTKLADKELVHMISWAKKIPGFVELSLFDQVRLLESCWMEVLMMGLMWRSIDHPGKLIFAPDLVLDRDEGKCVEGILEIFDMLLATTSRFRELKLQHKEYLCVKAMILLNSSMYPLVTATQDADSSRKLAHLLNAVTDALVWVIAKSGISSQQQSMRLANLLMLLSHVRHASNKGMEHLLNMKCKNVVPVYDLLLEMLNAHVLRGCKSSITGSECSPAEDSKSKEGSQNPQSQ

Estrogen receptor beta [14] = target: T1, Estrogen receptor beta
[15] = target: Lysosomal acid glucosylceramidase (Homo sapiens, UniProt P04062); test: Dose response cell-based high throughput screening assay to identify enhancers of beta-glucosidase activity. [Related pubchem assays: 784 ]; assay type: functional
Chain of Lysosomal acid glucosylceramidase (P04062 whole entry): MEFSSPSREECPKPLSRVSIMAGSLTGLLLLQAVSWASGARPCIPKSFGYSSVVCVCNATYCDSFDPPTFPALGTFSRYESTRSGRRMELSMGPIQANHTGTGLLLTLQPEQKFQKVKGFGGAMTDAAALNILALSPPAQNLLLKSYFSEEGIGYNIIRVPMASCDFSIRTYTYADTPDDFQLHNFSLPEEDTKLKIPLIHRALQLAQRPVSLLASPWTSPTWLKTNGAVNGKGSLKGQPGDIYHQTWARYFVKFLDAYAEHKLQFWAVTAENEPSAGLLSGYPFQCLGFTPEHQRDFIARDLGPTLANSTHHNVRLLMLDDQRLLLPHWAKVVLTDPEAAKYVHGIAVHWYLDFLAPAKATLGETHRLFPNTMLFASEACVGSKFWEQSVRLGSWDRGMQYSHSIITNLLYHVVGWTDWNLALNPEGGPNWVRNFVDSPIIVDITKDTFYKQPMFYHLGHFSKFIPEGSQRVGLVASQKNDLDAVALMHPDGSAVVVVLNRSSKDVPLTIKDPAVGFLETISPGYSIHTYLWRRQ

[16] = HEK-293T viability loss after treatment – luminescence, T-cell screen hits, cytotoxicity control for TCR NF-kB inhibitor project, dose response (AID 489026); assay type: functional, cell-based;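 note: cells exposed to compound about 14 hours before the viability readout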
BJ [17] = test: BJ-TERT-LT-ST fibroblast viability loss – cell-based, RAS-independent, luminescence, dose response (AID 1935); assay type: functional, Homo sapiens; details: Homo sapiens, BJ;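 note: BJ fibroblasts immortalized with TERT plus LT and ST oncogenes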
[18] = target: Luciferin 4-monooxygenase (Photinus pyralis, UniProt P08659); test: Counter Screen for Luciferase-based Assay Positives. [Related pubchem assays: 620, 618, 411 ]
[19] = DRD fibroblast viability loss – cell-based, non-viral oncogenic, luminescence, dose response (AID 1934); assay type: functional; details: Homo sapiens
BJ [20] = test: BJ-TERT fibroblast viability loss – cell-based, RAS-independent, luminescence, dose response (AID 1933); assay type: functional, Homo sapiens; details: Homo sapiens, BJ
BJ [21] = test: cells; assay type: functional, cell-based, Homo sapiens; details: Homo sapiens, BJ
HT-1080 = test: HT1080 cell viability loss – fluorescence readout (AID 620); assay type: functional, cell-based; details: Homo sapiens
[22] = Luminescence Cell-Based Dose Response to Identify Activators of Luciferase Translation or Activity in H4-C Neuroglioblastoma Cells. [Related pubchem assays: 1829 (Project Summary), 1814 (Primary HTS)]; assay type: functional
[23] = Luminescence Cell-Based Dose Confirmation to Identify Activators of 5'UTR Stem-Loop Driven Alpha-Synuclein mRNA Translation in H4 Neuroglioblastoma Cells. [Related pubchem assays: 1829 (Project Summary), 1814 (Primary HTS)]; assay type: functional
[24] = Luminescence Cell-Based Dose Response to Identify Activators of 5'UTR Stem-Loop Driven Prion Protein mRNA Translation in H4-C Neuroglioblastoma Cells. [Related pubchem assays: 1829 (Project Summary), 1814 (Primary HTS)]; assay type: functional
[25] = target: DNA dC->dU-editing enzyme APOBEC-3A (Homo sapiens, UniProt P31941); test: Dose Response confirmation of small molecule APOBEC3A DNA Deaminase Inhibitors via a fluorescence-based single-stranded DNA deaminase assay. [Related pubchem assays (depositor defined):AID493011, AID493024]; assay type: functional
[26] = target: DNA dC->dU-editing enzyme APOBEC-3G (Homo sapiens, UniProt Q9HC16); assay type: functional;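 note: Dose-response counterscreen measuring inhibition of APOBEC3G DNA deaminase activity, run while confirming APOBEC3A inhibitors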
Chain of DNA dC->dU-editing enzyme APOBEC-3G (Q9HC16 whole entry): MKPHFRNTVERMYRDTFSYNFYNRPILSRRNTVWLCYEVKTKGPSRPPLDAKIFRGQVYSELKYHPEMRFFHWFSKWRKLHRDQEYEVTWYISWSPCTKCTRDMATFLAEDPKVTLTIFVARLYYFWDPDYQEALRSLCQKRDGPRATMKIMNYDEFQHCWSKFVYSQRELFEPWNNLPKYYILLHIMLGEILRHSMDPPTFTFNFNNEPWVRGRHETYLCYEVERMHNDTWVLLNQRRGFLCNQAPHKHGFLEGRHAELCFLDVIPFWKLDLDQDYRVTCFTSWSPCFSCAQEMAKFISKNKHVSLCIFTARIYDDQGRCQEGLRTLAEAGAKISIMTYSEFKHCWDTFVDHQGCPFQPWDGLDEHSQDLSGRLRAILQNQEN

[27] = target: Protein-tyrosine kinase 2-beta (Homo sapiens, UniProt Q14289);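 note: potency of inhibitors of PYK2 kinase phosphorylation of poly-GT substrate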
Cytochrome P450 2C19 = Cytochrome P450 2C19 (Homo sapiens, UniProt P33261); test: Cytochrome panel assay with activity outcomes. Panel member name: p450-cyp2c19 Compounds with AC50 equal or less than 10 uM are considered active; assay type: functional; details: read-out: AC50
Cytochrome P450 2C9 = Cytochrome P450 2C9 (Homo sapiens, UniProt P11712)
Prothrombin = Prothrombin (Homo sapiens, UniProt P00734); test: Thrombin 1536 HTS Dose Response Confirmation. [Related pubchem assays: 1046 (Thrombin 1536 HTS; hits were confirmed in this assay)]; assay type: functional
Streptococcus = test: GAS UMAA2166 growth inhibition – luminescence, BacTiterGlo, counter-screen for streptokinase expression inhibitor project, dose response (AID 1915); assay type: functional, organism-based;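 note: potency for reduction of bacterial viability or growth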
[28] = test system: Streptococcus sp. 'group A'; test: Streptococcus pyogenes SK(-)GAS viability under kanamycin – luminescence, BacTiterGlo, confirmation, counter-screen for streptokinase expression inhibitor project, dose response (AID 1900); assay type: functional, organism-based
INS1 = test: INS-1E survival protection against cytokine death – cell-based, luminescence, retest, dose response (AID 449756); assay type: functional; details: Rattus norvegicus;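 note: cell death triggered by IL-1 beta plus TNF-alpha plus IFN-gamma mixture; protective hits raise ATP signal compared with cytokine alone wells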
[29] = target: T2, Neuropeptide Y receptor type 1 (Homo sapiens, UniProt P25929); test: Fluorescence-based counterscreen for agonists of NPY-Y2: cell-based high-throughput dose response assay for agonists of NPY-Y1.; assay type: functional
T2 sequence (P25929 whole entry): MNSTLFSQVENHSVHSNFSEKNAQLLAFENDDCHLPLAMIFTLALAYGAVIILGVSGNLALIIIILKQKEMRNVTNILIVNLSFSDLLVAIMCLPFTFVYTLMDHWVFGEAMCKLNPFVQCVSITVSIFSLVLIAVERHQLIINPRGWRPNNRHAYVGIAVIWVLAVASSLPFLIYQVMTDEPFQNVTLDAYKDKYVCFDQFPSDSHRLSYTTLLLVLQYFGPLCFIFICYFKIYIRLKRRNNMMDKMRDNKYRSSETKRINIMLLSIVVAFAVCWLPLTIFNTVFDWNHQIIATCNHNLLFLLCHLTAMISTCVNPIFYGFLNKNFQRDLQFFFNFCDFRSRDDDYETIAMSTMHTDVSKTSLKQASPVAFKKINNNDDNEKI

[30] = target: T3, Neuropeptide Y receptor type 2 (Homo sapiens, UniProt P49146); test: Fluorescence-based cell-based high-throughput dose response assay for agonists of NPY-Y2. [Related pubchem assays: 1703 (Screening assay (CNGC inhibitors).), 1359 (Screening assay (NPY-Y2 potentiators or agonists).), 1304 (Screening assay (NPY-Y1 potentiators or agonists).), 1710 (Screening assay (NPY-Y2 agonists).), 1791 (Summary AID.)]; assay type: functional
T3 sequence (P49146 whole entry): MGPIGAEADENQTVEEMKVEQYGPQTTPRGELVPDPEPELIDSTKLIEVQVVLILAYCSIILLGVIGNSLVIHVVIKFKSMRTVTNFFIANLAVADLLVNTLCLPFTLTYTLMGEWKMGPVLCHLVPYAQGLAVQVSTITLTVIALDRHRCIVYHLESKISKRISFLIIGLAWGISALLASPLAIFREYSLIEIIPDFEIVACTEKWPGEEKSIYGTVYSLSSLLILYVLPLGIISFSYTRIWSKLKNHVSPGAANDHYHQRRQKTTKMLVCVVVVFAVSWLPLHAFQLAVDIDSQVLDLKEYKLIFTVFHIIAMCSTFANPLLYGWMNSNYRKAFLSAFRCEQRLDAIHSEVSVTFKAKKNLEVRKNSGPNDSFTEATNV

Streptokinase A = target: T4, Streptokinase A (Streptococcus pyogenes serotype M1, UniProt P10520); test: viability-normalized secreted streptokinase activity reduction – plasminogen activation absorbance, OD405, dose response (AID 1914); assay type: functional, Streptococcus pyogenes M1 GAS;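 note: secreted streptokinase activity via plasminogen activation per viability signal from cell pellet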
T4 sequence (P10520 whole entry): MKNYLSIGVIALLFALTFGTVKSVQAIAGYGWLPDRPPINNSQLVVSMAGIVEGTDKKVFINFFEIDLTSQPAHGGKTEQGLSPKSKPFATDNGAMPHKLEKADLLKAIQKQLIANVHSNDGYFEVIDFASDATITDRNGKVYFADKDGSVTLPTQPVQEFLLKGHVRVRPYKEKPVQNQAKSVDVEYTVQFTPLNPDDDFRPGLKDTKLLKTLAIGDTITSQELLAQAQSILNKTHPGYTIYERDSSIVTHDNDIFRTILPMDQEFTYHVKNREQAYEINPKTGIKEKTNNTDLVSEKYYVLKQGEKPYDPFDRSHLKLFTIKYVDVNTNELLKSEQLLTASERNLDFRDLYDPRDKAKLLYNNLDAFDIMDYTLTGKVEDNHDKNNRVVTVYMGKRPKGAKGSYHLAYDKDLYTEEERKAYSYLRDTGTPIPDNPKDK

HEK293 = test: Fluorescence-based counterscreen for potentiators or agonists of NPY-Y2: cell-based high-throughput dose response assay to identify inhibitors of cyclic nucleotide gated ion channel (CNGC) activity. In this assay, the parental HEK293 cell line transfected with a cyclic-nucleotide gated ion channel (CNGC)-based cAMP sensor is used to measure inhibition of isoproterenol-induced CNGC activity by test compound.; assay type: functional; details: Homo sapiens;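 note: stimulus is 1 µM isoproterenol at EC100 plus PDE inhibitor Ro 20-1724 at 25 µM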

O=C(O)CCc1ccc(-c2ccc(Br)cc2)o1
EC50 [1]: > 79.4 µM (inactive)
EC50 [2]: 65.4 µM (not active)
IC50 (Protein Tat): > 100 µM (active)
IC50 [3]: 4.4 µM (active)
EC50 [4]: > 79.4 µM (not active)
IC50 [5]: > 39.8 µM (not active)

Nc1c(C(=O)NCc2ccco2)c2nc3ccccc3nc2n1CCN1CCCCC1
IC50 [6]: 0.776 µM (active)
EC50 (H4): > 120 µM (not active)
EC50 [7]: 14.4 µM (active)
EC50 [8]: 12.6 µM (active)
EC50 [9]: > 120 µM (not active)
EC50 [10]: 26.9 µM (active)
EC50 [11]: 9.81 µM (active)
EC50 [12]: 2.43 µM (active)

Cc1ccccc1Nc1nnc(SCC(=O)NCc2ccco2)s1
IC50 (Estrogen receptor beta [13]): 3.24 µM (not active) and > 50 µM (not active)
IC50 (Estrogen receptor beta [14]): 10.3 µM (active)

CC(C)OC(=O)CSc1nnc(-c2cccnc2)n1N
EC50 [15]: > 10 µM (not active)

CCCC(=O)C1=C(Nc2ccc(OC)cc2OC)CC(C)(C)CC1=O
IC50 [16]: > 80 µM (inactive)
EC50 (BJ [17]): 4.43 µM (active)
EC50 [18]: 0.55 µM (active)
EC50 [19]: 4.69 µM (active)
EC50 (BJ [20]): 13.1 µM (active)
EC50 (BJ [21]): 29.9 µM (active)
EC50 (HT-1080): 17.3 µM (active)

O=C(Nc1ccc(CN2CCOCC2)cc1)c1ccc(Cl)cc1
EC50 [22]: 0.951 µM (active)
EC50 (H4): 16.1 µM (active)
EC50 [9]: < 0.1 µM (active)
EC50 [23]: > 12 µM (not active)
EC50 [10]: 4.65 µM (active)
EC50 [24]: 0.685 µM (active)

COCCCn1c(Cc2csc(Nc3cccc(Cl)c3)n2)nnc1SCC(=O)OC1CCCCC1
IC50 [25]: 20.8 µM (active)
IC50 (Estrogen receptor beta [13]): 43.4 nM (not active)
IC50 [26]: 38.8 µM (active)
IC50 (Estrogen receptor beta [14]): < 1.56 µM (active)

COc1cccc(CNC(=O)COC(=O)/C(C#N)=C/c2ccc(N(C)C)cc2)c1
IC50 [3]: 29.4 µM (not active)
IC50 [5]: > 39.8 µM (not active)

CCOC(=O)c1ccc(NC(=O)CSC2=NC(=O)C(CC)C(=O)N2)cc1 (configuration not stated)
EC50 [15]: > 10 µM (not active)

Cc1ccc(C(=O)COC(=O)c2ccc3c(c2)C(=O)N(c2cccc4ncccc24)C3=O)cc1C
IC50 [27]: 7.66 µM (active)
AC50 (Cytochrome P450 2C19): 15.8 µM (inconclusive)
AC50 (Cytochrome P450 2C9): 0.708 µM (inconclusive)

Cc1ccc(-n2c(C)cc(C(=O)CSc3nncs3)c2C)cc1
EC50 [22]: 0.34 µM (active)
EC50 (H4): < 0.1 µM (active)
EC50 [23]: 0.346 µM (active)
EC50 [24]: 0.332 µM (active)
IC50 (Prothrombin): > 50 µM (not active)

O=C(/C(=N/Nc1cccc([N+](=O)[O-])c1)C(=O)C(F)(F)F)c1ccc(Br)cc1
EC50 (Streptococcus): 5.97 µM (active)
EC50 [28]: 7.63 µM (active)
AC50 (INS1): 6.21 µM (active)
EC50 [29]: 10.6 µM (not active)
EC50 [30]: 12.1 µM (not active)
EC50 (Streptokinase A): 6.23 µM (active)
EC50 (HEK293): 12.2 µM (not active)
